Measured values reported in US20260021109A1, “PROSTANOID RECEPTOR AGONISTS AS NON-TUBERCULOUS ANTI-MYCOBACTERIAL AGENTS” (priority 2022, published 2026).

Assays:
[1] = test system: zebrafish homolog of the EP2 receptor (EP2a); test: CRISPR EP2a KO zebrafish infected with M. abscessus; format: in vivo; settings: M. abscessus infected control and F0 CRISPR EP2a KO zebrafish; FIG. 7
Text: To explore the mechanism of action of Treprostinil in this context, the zebrafish homolog of the EP2 receptor was knocked out using CRISPR and control and KO zebrafish were infected with M. abscessus. […] This definitively confirms that Treprostinil acts via an EP2-mediated host-directed therapeutic effect.

M. abscessus [2] = test: in vitro infection of THP1 monocytic human cell line with M. abscessus; format: cell-based; settings: for M. abscessus survival rate: THP1 cells, 48H, untreated control 2.7, p=0.005, FIG. 4A
M. marinum = M. marinum infection of zebrafish; format: in vivo; settings: zebrafish infected by M. marinum; FIG. 4C
M. abscessus [3] = settings: zebrafish, in vivo
M. abscessus [4] = test: M. abscessus in liquid culture (absence of THP1 cells); format: cell-based; settings: liquid culture medium, no THP1 cells; Treprostinil 50 μM; versus untreated; FIG. 6
M. tuberculosis = test: in vitro infection of THP1 monocytic human cell line with M. tuberculosis; format: cell-based; settings: THP1 cells, untreated control 0.50, p=0.0165, FIG. 4B

## CCCCC[C@H](O)CC[C@@H]1[C@H]2Cc3cccc(OCC(=O)O)c3C[C@H]2C[C@H]1O [Treprostinil]
[1]
  Treprostinil rescue in EP2a KO zebrafish: completely abrogated
M. abscessus [2]; FIG. 5B, THP1 killing of M. abscessus according to legend b39
  dose response of killing of M. abscessus: dose response to the effect was also observed
M. abscessus [2]; 400 nM
  M. abscessus survival rate: 1.07
M. abscessus [2]; 1 μM
  M. abscessus survival rate: 1.24
M. marinum
  effect on M. marinum numbers in zebrafish: no observable effect
M. abscessus [3]
  killing of M. abscessus compared with imipenem: significantly more effective than imipenem
M. abscessus [4]
  direct antibiotic effect on M. abscessus growth: no difference in growth
M. tuberculosis; 400 nM
  M. tuberculosis survival rate: 0.44
M. tuberculosis; 1 μM
  M. tuberculosis survival rate: 0.37
